Reference: patent publication US20110105462A1, “MODULATORS OF DOPAMINE NEUROTRANSMISSION” (NSAB, FILIAL AF NEUROSEARCH SWEDEN AB, SVERIGE, priority 2008, published 2011)
Structures can show the parent of a compound that is named as a salt.

Legend:
[1] = tested on: DOPAC (3,4-dihydroxyphenylacetic acid) in the rat striatum; assay: Increase of DOPAC in the rat striatum after systemic administration (in vivo neurochemistry); conditions: sc, systemic administration (s.c.), curve fitting, 95% range printed in the row below each value, read-out: ED50 DOPAC* (estimated ED50 on increase of DOPAC in the rat striatum)
Description: After the behavioural activity sessions, the rats are decapitated and their brains rapidly taken out and put on an ice-cold petri-dish. The limbic forebrain, the striatum, the frontal cortex and the remaining hemispheral parts of each rat are dissected and frozen. Each brain part is subsequently analyzed with respect to its content of monoamines and their metabolites.
The monoamine transmitter substances (NA (noradrenaline), DA (dopamine), 5-HT (serotonin)) as well as their amine (NM (normethanephrine), 3-MT (3-methoxytyramine)) and acid (DOPAC (3,4-dihydroxyphenylacetic acid), 5-HIAA (5-hydroxyindoleacetic acid), HVA (homovanillic acid)) metabolites are quantified in brain tissue homogenates by HPLC separations and electrochemical detection
The analytical method is based on two chromatographic separations dedicated for amines or acids. Two chromatographic systems share a common auto injector with a 10-port valve and two sample loops for simultaneous injection on the two systems. Both systems are equipped with a reverse phase column (Luna C18(2), dp 3 μm, 50*2 mm i.d., Phenomenex) and electrochemical detection is accomplished at two potentials on glassy carbon electrodes (MF-1000, Bioanalytical Systems, Inc.). The column effluent is passed via a T-connection to the detection cell or to a waste outlet. This is accomplished by two solenoid valves, which block either the waste or detector outlet. By preventing the chromatographic front from reaching the detector, better detection conditions are achieved. The aqueous mobile phase (0.4 ml/min) for the acid system contains citric acid 14 mM, sodium citrate 10 mM, MeOH 15% (v/v) and EDTA 0.1 mM. Detection potentials relative to Ag/AgCl reference are 0.45 and 0.60V. The aqueous ion pairing mobile phase (0.5 ml/min) for the amine system contains citric acid 5 mM, sodium citrate 10 mM, MeOH 9% (v/v), MeCN 10.5% v/v), decane sulfonic acid 0.45 mM, and EDTA 0.1 mM. Detection potentials relative to Ag/AgCl reference are 0.45 and 0.65V.
ED50 values for the increase of DOPAC in striatum are calculated by curve fitting.

drug-naive rats = assay: Locomotor activity in drug-naive rats (in vivo behaviour); parameters: species or system rat; conditions: recorded for 60 minutes immediately after drug administration
Description: Photobeam sensors are spaced 2.5 cm apart.

Row | Compound | melting point | ED50 [1] | Locomotor activity (counts/60 min ± SEM) (drug-naive rats; 3.7 μmol/kg) | Locomotor activity (counts/60 min ± SEM) (drug-naive rats; 11 μmol/kg) | Locomotor activity (counts/60 min ± SEM) (drug-naive rats; 33 μmol/kg)
1 | CCCNCC1COc2cc(F)c(F)cc2O1 (centres unmarked) (as salt: hydrobromic acid salt) [Example 2, N-[(6,7-DIFLUORO-2,3-DIHYDRO-1,4-BENZODIOXIN-2-YL)METHYL]PROPAN-1-AMINE] | 262 °C | – | – | – | –
2 | CCCNCC1COc2ccc(F)cc2O1 (centres unmarked) (as salt: hydrochloric acid salt) [Example 3, N-[(7-FLUORO-2,3-DIHYDRO-1,4-BENZODIOXIN-2-YL)METHYL]PROPAN-1-AMINE] | 187 °C | – | – | – | –
3 | CCCNCC1COc2ccc(Cl)cc2O1 (centres unmarked) (as salt: hydrochloric acid salt) [Example 4, N-[(7-CHLORO-2,3-DIHYDRO-1,4-BENZODIOXIN-2-YL)METHYL]PROPAN-1-AMINE] | 191 °C | – | – | – | –
4 | CCCNCC1COc2c(F)cc(F)cc2O1 (centres unmarked) (as salt: hydrochloric acid salt) [Example 8, N-[(5,7-DIFLUORO-2,3-DIHYDRO-1,4-BENZODIOXIN-2-YL)METHYL]PROPAN-1-AMINE] | 157 °C | – | – | – | –
5 | CCCNC[C@H]1COc2ccc(Br)cc2O1 [Example 1, N-{[(2S)-7-BROMO-2,3-DIHYDRO-1,4-BENZODIOXIN-2-YL]METHYL}PROPAN-1-AMINE] | – | 3.4 µmol/kg | 6714 ± 601 counts/60 min | 5111 ± 620 counts/60 min | 1326 ± 131 counts/60 min
6 | CCCNCC1COc2ccc(OS(=O)(=O)C(F)(F)F)cc2O1 (centres unmarked) [Example 6, 3-[(PROPYLAMINO)METHYL]-2,3-DIHYDRO-1,4-BENZODIOXIN-6-YL TRIFLUOROMETHANESULFONATE] | – | 12 µmol/kg | 9495 ± 2036 counts/60 min | 10705 ± 1903 counts/60 min | 8064 ± 707 counts/60 min
7 | CCCNCC1COc2ccc(F)c(F)c2O1 (centres unmarked) [Example 7, N-[(7,8-DIFLUORO-2,3-DIHYDRO-1,4-BENZODIOXIN-2-YL)METHYL]PROPAN-1-AMINE] | – | 3.1 µmol/kg | 7932 ± 2067 counts/60 min | 6884 ± 400 counts/60 min | 4408 ± 212 counts/60 min
8 | CCCNCC1COc2c(F)cc(F)cc2O1 (centres unmarked) [Example 8, N-[(5,7-DIFLUORO-2,3-DIHYDRO-1,4-BENZODIOXIN-2-YL)METHYL]PROPAN-1-AMINE] | – | 14 µmol/kg | 9266 ± 2706 counts/60 min | 8320 ± 2405 counts/60 min | 5457 ± 536 counts/60 min
9 | Fc1ccc2c(c1)O[C@@H](CN1CCCC1)CO2 [Example 9, 1-{[(2S)-7-FLUORO-2,3-DIHYDRO-1,4-BENZODIOXIN-2-YL]METHYL}PYRROLIDINE] | – | – | 5419 ± 1414 counts/60 min | 2769 ± 647 counts/60 min | 1944 ± 482 counts/60 min
10 | CCCNC[C@H]1COc2ccc(C(F)(F)F)cc2O1 [Example 58, N-{[(2S)-7-(TRIFLUOROMETHYL)-2,3-DIHYDRO-1,4-BENZODIOXIN-2-YL]METHYL}PROPAN-1-AMINE] | – | < 3.7 µmol/kg | – | – | –

The next lines start with results.

Row | melting point | Compound | ED50 [1] | Locomotor activity (counts/60 min ± SEM) (drug-naive rats; 3.7 μmol/kg) | Locomotor activity (counts/60 min ± SEM) (drug-naive rats; 11 μmol/kg) | Locomotor activity (counts/60 min ± SEM) (drug-naive rats; 33 μmol/kg)
11 | 163 °C | CCCNCC1COc2ccc(OS(=O)(=O)C(F)(F)F)cc2O1 (centres unmarked) (as salt: fumaric acid salt) [Example 6, 3-[(PROPYLAMINO)METHYL]-2,3-DIHYDRO-1,4-BENZODIOXIN-6-YL TRIFLUOROMETHANESULFONATE] | – | – | – | –
12 | 194 °C | CCCNC[C@H]1COc2ccc(Br)cc2O1 (as salt: hydrochloric acid salt) [Example 1, N-{[(2S)-7-BROMO-2,3-DIHYDRO-1,4-BENZODIOXIN-2-YL]METHYL}PROPAN-1-AMINE] | – | – | – | –
13 | 184 °C | CCCNCC1COc2ccc(F)c(F)c2O1 (centres unmarked) (as salt: hydrochloric acid salt) [Example 7, N-[(7,8-DIFLUORO-2,3-DIHYDRO-1,4-BENZODIOXIN-2-YL)METHYL]PROPAN-1-AMINE] | – | – | – | –
14 | 215 °C | Fc1ccc2c(c1)O[C@@H](CN1CCCC1)CO2 (as salt: hydrochloric acid salt) [Example 9, 1-{[(2S)-7-FLUORO-2,3-DIHYDRO-1,4-BENZODIOXIN-2-YL]METHYL}PYRROLIDINE] | – | – | – | –
15 | 166 °C | CCCNC[C@H]1COc2ccc(C(F)(F)F)cc2O1 (as salt: hydrochloric acid salt) [Example 58, N-{[(2S)-7-(TRIFLUOROMETHYL)-2,3-DIHYDRO-1,4-BENZODIOXIN-2-YL]METHYL}PROPAN-1-AMINE] | – | – | – | –
